Measured values reported in article PMC5440690, “Sirt1 carboxyl-domain is an ATP-repressible domain that is transferrable to other proteins” (Nature Communications, 2017).

Key:
Sirt1 = target: T1, Sirt1 (Mus musculus, UniProt Q923E4); test: gel-filtration (spin column) binding with [γ-32P]ATP; also ATP-agarose pull-down with free ATP competition, and enzyme inhibition
T1 construct: full-length recombinant Sirt1
T1 sequence (Q923E4 2-737): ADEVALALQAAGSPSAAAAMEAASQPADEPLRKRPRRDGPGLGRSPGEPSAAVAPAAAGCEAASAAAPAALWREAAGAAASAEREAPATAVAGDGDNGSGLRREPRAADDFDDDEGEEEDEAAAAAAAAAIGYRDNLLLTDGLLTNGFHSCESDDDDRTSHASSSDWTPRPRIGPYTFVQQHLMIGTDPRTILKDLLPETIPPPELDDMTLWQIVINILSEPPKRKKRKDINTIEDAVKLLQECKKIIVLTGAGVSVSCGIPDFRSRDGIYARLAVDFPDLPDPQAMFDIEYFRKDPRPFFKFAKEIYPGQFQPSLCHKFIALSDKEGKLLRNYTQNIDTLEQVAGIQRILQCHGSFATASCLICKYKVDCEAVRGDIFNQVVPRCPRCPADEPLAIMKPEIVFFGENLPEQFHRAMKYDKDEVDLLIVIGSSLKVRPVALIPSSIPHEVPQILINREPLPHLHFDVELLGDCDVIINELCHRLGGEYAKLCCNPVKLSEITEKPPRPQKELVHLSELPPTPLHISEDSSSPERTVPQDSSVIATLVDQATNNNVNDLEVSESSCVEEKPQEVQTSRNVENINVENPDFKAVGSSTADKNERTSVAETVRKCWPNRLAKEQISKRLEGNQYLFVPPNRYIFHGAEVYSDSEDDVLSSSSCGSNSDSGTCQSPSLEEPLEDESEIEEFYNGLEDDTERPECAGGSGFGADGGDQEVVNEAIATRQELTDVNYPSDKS

2A Sirt1 = target: T2, 2A Sirt1 (Mus musculus, UniProt Q923E4, S649A/S651A); test: deacetylation of [3H]Ac-H4, inhibition kinetics (Kii); weakened ATP-agarose binding; type: biochemical
T2 construct: full-length recombinant 2A Sirt1
T2 sequence (Q923E4 1-737 S649A/S651A): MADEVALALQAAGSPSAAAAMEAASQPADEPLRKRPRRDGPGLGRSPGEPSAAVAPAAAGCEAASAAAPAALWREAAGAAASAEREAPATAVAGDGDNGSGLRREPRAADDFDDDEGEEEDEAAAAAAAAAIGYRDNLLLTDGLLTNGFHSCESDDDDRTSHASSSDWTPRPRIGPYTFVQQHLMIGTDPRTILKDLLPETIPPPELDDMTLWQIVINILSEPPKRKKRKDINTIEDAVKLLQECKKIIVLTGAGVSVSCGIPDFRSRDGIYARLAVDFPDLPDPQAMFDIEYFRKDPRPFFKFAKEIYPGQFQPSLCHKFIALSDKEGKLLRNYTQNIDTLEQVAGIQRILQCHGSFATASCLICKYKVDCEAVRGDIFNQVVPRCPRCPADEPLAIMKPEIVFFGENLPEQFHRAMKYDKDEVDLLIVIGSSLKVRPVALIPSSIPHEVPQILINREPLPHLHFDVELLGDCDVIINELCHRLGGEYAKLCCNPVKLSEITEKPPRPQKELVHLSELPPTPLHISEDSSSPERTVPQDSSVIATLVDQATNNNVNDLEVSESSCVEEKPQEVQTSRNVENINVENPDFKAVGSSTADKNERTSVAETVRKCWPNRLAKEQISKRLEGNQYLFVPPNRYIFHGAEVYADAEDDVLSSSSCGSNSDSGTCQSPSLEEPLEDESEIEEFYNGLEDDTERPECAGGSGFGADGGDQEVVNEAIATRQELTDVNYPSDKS

Which results are given for `Nc1ncnc2c1ncn2[C@@H]1O[C@H](COP(=O)(O)OP(=O)(O)OP(=O)(O)O)[C@@H](O)[C@H]1O` [ATP]?
Kd (Sirt1): ~4.6 mM; Ki (2A Sirt1): 6.45 ± 0.51 mM
